# Source: ChEMBL document CHEMBL1143181, “2-Aminoresorcinol is a potent alpha-glucosidase inhibitor” (Bioorg Med Chem Lett, 2008)
# pIC50, pKi: −log10 of the molar value.
# How the values were obtained:
# [1] = biological target: Sucrase-isomaltase, intestinal (Rattus norvegicus) (UniProt P23739); test: Inhibition of rat intestinal sucrase at 500 uM
# [2] = biological target: T1, Sucrase-isomaltase, intestinal (Rattus norvegicus, UniProt P23739); test: Inhibition of rat intestinal sucrase
# [3] = biological target: T2, Beta-galactosidase (Bos taurus) (UniProt Q58D55); test: Inhibition of bovine liver beta galactosidase; conditions: concentration not given here
# T2 sequence (whole entry): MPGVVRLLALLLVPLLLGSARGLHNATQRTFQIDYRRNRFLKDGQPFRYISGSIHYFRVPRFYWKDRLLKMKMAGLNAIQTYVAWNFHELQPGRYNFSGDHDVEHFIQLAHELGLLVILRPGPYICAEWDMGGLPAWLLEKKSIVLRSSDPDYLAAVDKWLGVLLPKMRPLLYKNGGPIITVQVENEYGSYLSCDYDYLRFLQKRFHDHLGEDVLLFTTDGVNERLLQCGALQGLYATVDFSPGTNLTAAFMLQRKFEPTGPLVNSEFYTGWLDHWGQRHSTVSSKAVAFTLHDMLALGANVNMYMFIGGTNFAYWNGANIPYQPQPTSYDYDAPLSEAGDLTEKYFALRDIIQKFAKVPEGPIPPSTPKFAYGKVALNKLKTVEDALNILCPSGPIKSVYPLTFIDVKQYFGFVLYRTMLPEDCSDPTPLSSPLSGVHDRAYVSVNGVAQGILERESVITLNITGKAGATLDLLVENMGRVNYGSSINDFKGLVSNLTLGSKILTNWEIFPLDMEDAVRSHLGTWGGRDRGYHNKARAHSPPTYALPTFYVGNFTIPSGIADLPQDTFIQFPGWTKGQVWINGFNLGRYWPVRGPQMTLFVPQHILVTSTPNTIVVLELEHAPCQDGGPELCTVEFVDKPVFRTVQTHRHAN
# Canavalia ensiformis = test: Inhibition of jack bean alpha mannosidase; conditions: concentration not given here
# Prunus dulcis = test: Inhibition of almond beta glucosidase; conditions: concentration not given here
# [4] = biological target: Alpha-galactosidase (Coffea arabica) (UniProt Q5DUH8); test: Inhibition of green coffee bean alpha galactosidase; conditions: concentration not given here
# Sequence of Alpha-galactosidase (Coffea arabica) (Q5DUH8 as listed by the source): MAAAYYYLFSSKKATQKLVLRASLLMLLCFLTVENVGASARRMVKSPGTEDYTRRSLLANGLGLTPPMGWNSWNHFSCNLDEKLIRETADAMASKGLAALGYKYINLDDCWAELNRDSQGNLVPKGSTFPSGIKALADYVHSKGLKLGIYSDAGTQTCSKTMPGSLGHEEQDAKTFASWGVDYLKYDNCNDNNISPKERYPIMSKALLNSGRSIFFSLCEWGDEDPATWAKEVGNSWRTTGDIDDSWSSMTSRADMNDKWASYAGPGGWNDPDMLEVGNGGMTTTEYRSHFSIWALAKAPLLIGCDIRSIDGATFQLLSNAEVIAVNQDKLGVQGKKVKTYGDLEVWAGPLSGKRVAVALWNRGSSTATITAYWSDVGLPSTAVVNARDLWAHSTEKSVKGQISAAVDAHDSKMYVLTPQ
# [5] = biological target: Sucrase-isomaltase, intestinal (Rattus norvegicus) (UniProt P23739); test: Inhibition of rat intestinal isomaltase at 500 uM
# [6] = biological target: T3, Alpha-amylase (Sus scrofa domesticus) (UniProt Q7M328); test: Inhibition of pig pancreas alpha amylase; conditions: concentration not given here
# T3 sequence (whole entry): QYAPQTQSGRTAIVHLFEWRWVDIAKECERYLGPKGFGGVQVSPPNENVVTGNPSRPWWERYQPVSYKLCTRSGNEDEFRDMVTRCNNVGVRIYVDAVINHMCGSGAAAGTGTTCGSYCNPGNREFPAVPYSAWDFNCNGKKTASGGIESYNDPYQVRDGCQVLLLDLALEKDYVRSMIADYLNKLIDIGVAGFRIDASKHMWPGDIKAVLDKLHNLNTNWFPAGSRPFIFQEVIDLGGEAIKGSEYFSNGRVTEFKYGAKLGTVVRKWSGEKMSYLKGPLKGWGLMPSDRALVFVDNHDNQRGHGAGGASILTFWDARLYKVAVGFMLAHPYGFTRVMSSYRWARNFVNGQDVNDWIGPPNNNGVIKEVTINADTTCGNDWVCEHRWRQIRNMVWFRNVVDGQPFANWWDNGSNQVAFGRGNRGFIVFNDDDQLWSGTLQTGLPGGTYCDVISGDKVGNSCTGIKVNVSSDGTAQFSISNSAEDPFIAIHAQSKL
# [7] = biological target: T1, Sucrase-isomaltase, intestinal; test: Inhibition of sucrose hydrolyzing activity of rat intestinal alpha glucosidase
# Sequence of Sucrase-isomaltase, intestinal (Rattus norvegicus) (P23739 1-1013 limits assumed): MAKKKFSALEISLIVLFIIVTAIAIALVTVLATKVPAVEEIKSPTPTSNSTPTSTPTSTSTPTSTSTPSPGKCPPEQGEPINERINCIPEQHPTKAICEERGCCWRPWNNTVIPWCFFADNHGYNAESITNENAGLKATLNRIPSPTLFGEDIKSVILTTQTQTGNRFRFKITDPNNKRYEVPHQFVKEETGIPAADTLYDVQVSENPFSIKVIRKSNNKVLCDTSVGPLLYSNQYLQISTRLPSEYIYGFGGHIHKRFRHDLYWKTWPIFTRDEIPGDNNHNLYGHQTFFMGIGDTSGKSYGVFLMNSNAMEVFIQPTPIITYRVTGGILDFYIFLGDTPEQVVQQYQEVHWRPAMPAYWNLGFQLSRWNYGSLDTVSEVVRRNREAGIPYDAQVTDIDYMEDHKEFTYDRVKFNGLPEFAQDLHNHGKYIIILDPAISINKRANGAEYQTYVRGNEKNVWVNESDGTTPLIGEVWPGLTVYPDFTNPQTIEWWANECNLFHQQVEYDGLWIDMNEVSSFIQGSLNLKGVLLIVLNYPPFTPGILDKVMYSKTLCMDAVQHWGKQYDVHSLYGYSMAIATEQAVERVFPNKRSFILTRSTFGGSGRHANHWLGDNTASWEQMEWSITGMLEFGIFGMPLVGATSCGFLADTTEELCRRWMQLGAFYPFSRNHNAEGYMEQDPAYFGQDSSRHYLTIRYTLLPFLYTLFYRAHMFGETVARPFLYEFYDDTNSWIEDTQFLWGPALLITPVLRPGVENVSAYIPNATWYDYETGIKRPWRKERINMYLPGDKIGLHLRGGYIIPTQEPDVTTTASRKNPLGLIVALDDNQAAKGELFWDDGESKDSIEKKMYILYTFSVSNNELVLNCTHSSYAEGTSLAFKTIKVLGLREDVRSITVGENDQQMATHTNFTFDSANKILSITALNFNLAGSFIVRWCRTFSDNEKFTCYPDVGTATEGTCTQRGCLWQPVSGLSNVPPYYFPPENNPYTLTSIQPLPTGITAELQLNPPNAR
# Sequence of Sucrase-isomaltase, intestinal (Rattus norvegicus) (P23739 1014-1841 limits assumed): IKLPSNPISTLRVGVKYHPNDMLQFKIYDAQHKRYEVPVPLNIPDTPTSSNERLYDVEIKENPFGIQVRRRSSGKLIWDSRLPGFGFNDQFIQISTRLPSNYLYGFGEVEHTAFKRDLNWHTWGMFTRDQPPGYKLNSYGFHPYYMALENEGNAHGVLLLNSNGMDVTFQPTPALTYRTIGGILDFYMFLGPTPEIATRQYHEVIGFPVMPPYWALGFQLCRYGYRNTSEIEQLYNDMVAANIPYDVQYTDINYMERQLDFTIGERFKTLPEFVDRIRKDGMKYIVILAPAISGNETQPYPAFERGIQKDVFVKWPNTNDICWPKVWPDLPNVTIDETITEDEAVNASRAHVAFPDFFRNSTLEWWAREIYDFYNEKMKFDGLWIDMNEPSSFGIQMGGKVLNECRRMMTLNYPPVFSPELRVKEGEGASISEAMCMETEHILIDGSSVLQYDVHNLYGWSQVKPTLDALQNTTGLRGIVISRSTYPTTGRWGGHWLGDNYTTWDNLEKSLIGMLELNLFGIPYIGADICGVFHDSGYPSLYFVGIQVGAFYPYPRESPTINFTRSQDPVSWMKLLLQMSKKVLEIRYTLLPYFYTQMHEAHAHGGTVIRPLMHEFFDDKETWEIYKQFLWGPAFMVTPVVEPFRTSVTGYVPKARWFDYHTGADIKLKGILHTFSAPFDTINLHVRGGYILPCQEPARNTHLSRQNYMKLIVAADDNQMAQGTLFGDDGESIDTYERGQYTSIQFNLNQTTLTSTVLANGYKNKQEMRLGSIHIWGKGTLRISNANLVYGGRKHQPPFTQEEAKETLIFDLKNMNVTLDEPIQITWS
# T1 sequence (P23739 1-1013 limits assumed): as the sequence (P23739 1-1013 limits assumed) above
# T1 sequence (P23739 1014-1841 limits assumed): as the sequence (P23739 1014-1841 limits assumed) above
inhibition [1],pIC50 [2],inhibition [3],inhibition (Canavalia ensiformis),inhibition (Prunus dulcis),inhibition [4],inhibition [5],inhibition [6],pKi [7],SMILES
10%,< 3.30,–,–,–,–,–,–,–,N[C@H]1[C@H](O)CCC[C@@H]1O
–,5.62,10%,7%,19%,6%,32%,12%,–,Nc1c(O)cc2oc(-c3ccccc3)cc(=O)c2c1O
–,5.44,5%,4%,7%,10%,–,15%,–,CC(=O)c1ccc(O)c(N)c1O

# The next lines start with the compound.
SMILES,inhibition [1],pIC50 [2],inhibition [3],inhibition (Canavalia ensiformis),inhibition (Prunus dulcis),inhibition [4],inhibition [5],inhibition [6],pKi [7]
Oc1cccc(O)c1O [PYROGALLOL],42%,< 3.30,–,–,–,–,–,–,–
O=c1cc(-c2ccccc2)oc2cc(O)c(O)c(O)c12 [BAICALEIN],–,4.28,–,–,–,–,–,–,–
Nc1ccc(O)cc1O,46%,< 3.30,–,–,–,–,–,–,–
Nc1c(O)cccc1O,–,5.38,4%,3%,12%,8%,–,11%,5.38
